Assay results taken from patent US12312605B2, “Riboflavin derivative-containing medium” (AJINOMOTO CO., INC., priority 2017, dated 2025).
Where a name gives a salt, the structure may show the parent alone.

How the values were obtained:
Format in all cases: cell-based
iPS cells (201B7 strain) [1] = test: Influence of Fe, Zn, RFV on storage stability of medium (iPS cell confluency); conditions: Essential 8 supplement; for contribution to lowering of storage stability of the medium: 100 vs 25 mol % in Modified DMEM/F-12 with FMN 20 mol %, refrigerated 2 weeks
Experimental: (§1) 201B7 strain purchased from iPS Academia Japan, Inc. was used as the iPS cell. Cell culture was performed using a culture vessel coated with Matrigel (Nippon Becton, Dickinson and Company: 354277) or iMatrix-511 (Nippi. Inc.: 892002) as an extracellular matrix under conditions of 5% CO2/37° C.
(§2) Modified DMEM/F-12 was mixed with each supplement of Essential 8 (Thermo Fisher SCIENTIFIC: A1517001), TeSR-E8 (STEMCELL Technologies: #05940), TeSR2 (STEMCELL Technologies: #05860) to prepare a complete medium. The medium was stored in a refrigerator with a glass door under non-light-shielding (fluorescent light irradiation time: 10 hr/day) and then used for culture, based on which the storage stability of the medium was studied.
To what extent Fe^2+, Zn^2+ and RFV contribute to the storage stability of the medium was studied. Complete media were respectively prepared by adding each component to Modified DMEM/F-12 (FMN−) (Table 5). Each medium was refrigerated under non-light-shielding for 0 and 2 weeks and then the proliferation ability of iPS cells was studied.
(§3) A 12-well plate coated with Matrigel was prepared, 10,000 cells per well were seeded in a single cell state. On the day when the cells were seeded, the evaluation was performed using the medium prepared above. The culture period was set to 7 days, and the cell confluency was measured using IncuCyte Zoom on day 7 from the start of the culture. At the time of seeding, a medium supplemented with Y-27632 at a final concentration of 10 μM was used. In the evaluation from the following day, the cells were cultured in a medium not supplemented with Y-27632.

iPS cells (201B7 strain) [2] = test: Effective concentration of RFV derivatives: iPS cell growth in medium refrigerated for 2 weeks; design: key to cell growth: X; not grown; ◯; cell grown; conditions: for storage stability of medium compared with RFV: any medium (Essential 8 or TeSR2 supplement), refrigerated 2 weeks
Experimental: as §1, §2
The effectiveness of FAD and RTB, which are RFV derivatives, was studied, and the effective concentration ranges of FMN, FAD and RTB were studied. A complete medium was prepared using Modified DMEM/F-12 (FMN−) as the basal medium and Essential 8 or TeSR2 supplement as the supplement. RFV, FMN (Riboflavin 5′-Monophosphate Sodium Salt), FAD (Flavin Adenine Dinucleotide Disodium Salt Hydrate (Tokyo Chemical m Industry Co., Ltd., F0014, hereinafter the same)) and RTB (Riboflavin Tetrabutyrate, Wako Pure Chemical Industries, Ltd., 185-00861) were each added to the complete medium at a final concentration of 0.47 to 15.2 μM (concentration converted to free form anhydrate in the case of salt and/or hydrate). A medium supplemented with Fe^2+ and Zn^2+ at 100 mol % was also prepared.
as §3, with “Each medium was refrigerated under non-light-shielding for 2 weeks and then the proliferation ability of iPS cells was studied. A 12-well” for “A 12-well”
To study the effective concentration range of FAD, which is an RFV derivative, the unperformed part of Example 5 was evaluated. A complete medium was prepared using Modified DMEM/F-12 (FMN−) as the basal medium and TeSR2 supplement as the supplement. FAD (Flavin Adenine Dinucleotide Disodium Salt Hydrate) was added to the complete medium at a final concentration of 0.47 to 15.2 μM. A medium supplemented with Fe^2+ and Zn^2+ at 100 mol % was prepared.

iPS cells (201B7 strain) [3] = test: Effectiveness of RFV during iPS cell culture (cell confluency, day 7); conditions: Modified DMEM/F-12 (FMN-) + Essential 8 supplement, RFV 0.00-0.176 mg/L, Fe2+ and Zn2+ 25 or 100 mol %, Matrigel
Experimental: 201B7 strain purchased from iPS Academia Japan, Inc. was used as the iPS cell. Cell culture was performed using a culture vessel coated with Matrigel (Nippon Becton, Dickinson and Company: 354277) or iMatrix-511 (Nippi. Inc.: 892002) as an extracellular matrix under conditions of 5% CO2/37° C. Whether RFV is an essential component during iPS cell culture was studied. A complete medium was prepared by mixing the basal medium (Solution A: Modified DMEM/F-12 (FMN−)) and Essential 8 supplement (Solution B). Media were prepared by adding RFV to the complete medium to final concentrations of 0.00, 0.0176, 0.044, 0.088, 0.176 mg/L (No. 1 to No. 5 in Table 3). Along therewith, to grasp the influence of the reduced mineral components, media supplemented with Fe^2+ and Zn^2+ at 100 mol % were also prepared (No. 6 to No. 10 in Table 3). After preparing the medium, a 12-well plate coated with Matrigel was prepared, and 10,000 cells per well were seeded in a single cell state. On the day when the cells were seeded, the evaluation was performed using the medium prepared above. The culture period was set to 7 days, and the cell confluency was measured as an index of cell proliferation using IncuCyte Zoom (Essen Bioscience) on day 7 from the start of the culture. […]

[4] = 0.47 μM (80 mol % vs DMEM/F-12), Fe2+ and Zn2+ 25 mol %, Essential 8 supplement, medium refrigerated 2 weeks
[5] = 0.47 μM (80 mol % vs DMEM/F-12), Fe2+ and Zn2+ 25 mol %, TeSR2 supplement, medium refrigerated 2 weeks
[6] = 0.47 μM (80 mol % vs DMEM/F-12), Fe2+ and Zn2+ 100 mol %, Essential 8 supplement, medium refrigerated 2 weeks
[7] = 0.47 μM (80 mol % vs DMEM/F-12), Fe2+ and Zn2+ 100 mol %, TeSR2 supplement, medium refrigerated 2 weeks, Example 5
[8] = 1.52 μM (259 mol % vs DMEM/F-12), Fe2+ and Zn2+ 25 mol %, Essential 8 supplement, medium refrigerated 2 weeks
[9] = 1.52 μM (259 mol % vs DMEM/F-12), Fe2+ and Zn2+ 100 mol %, Essential 8 supplement, medium refrigerated 2 weeks
[10] = 2.57 μM (437 mol % vs DMEM/F-12), Fe2+ and Zn2+ 25 mol %, TeSR2 supplement, medium refrigerated 2 weeks
[11] = 2.57 μM (437 mol % vs DMEM/F-12), Fe2+ and Zn2+ 100 mol %, TeSR2 supplement, medium refrigerated 2 weeks, Example 5
[12] = 15.2 μM (2587 mol % vs DMEM/F-12), Fe2+ and Zn2+ 25 mol %, TeSR2 supplement, medium refrigerated 2 weeks
[13] = 15.2 μM (2587 mol % vs DMEM/F-12), Fe2+ and Zn2+ 100 mol %, TeSR2 supplement, medium refrigerated 2 weeks, Example 5

SMILES | contribution to lowering of storage stability of the medium (iPS cells (201B7 strain) [1]) | cell growth (iPS cells (201B7 strain) [2]; [4]) | cell growth (iPS cells (201B7 strain) [2]; [5]) | cell growth (iPS cells (201B7 strain) [2]; [6]) | cell growth (iPS cells (201B7 strain) [2]; [7]) | cell growth (iPS cells (201B7 strain) [2]; [8]) | cell growth (iPS cells (201B7 strain) [2]; [9]) | cell growth (iPS cells (201B7 strain) [2]; [10]) | cell growth (iPS cells (201B7 strain) [2]; [11]) | cell growth (iPS cells (201B7 strain) [2]; [12]) | cell growth (iPS cells (201B7 strain) [2]; [13]) | storage stability of medium compared with RFV (iPS cells (201B7 strain) [2]) | cell growth (iPS cells (201B7 strain) [2]; 0.47 μM (80 mol % vs DMEM/F-12), Fe2+ and Zn2+ 100 mol %, TeSR2 supplement, medium refrigerated 2 weeks, Example 6) | cell growth (iPS cells (201B7 strain) [2]; 2.57 μM (437 mol % vs DMEM/F-12), Fe2+ and Zn2+ 100 mol %, TeSR2 supplement, medium refrigerated 2 weeks, Example 6) | cell growth (iPS cells (201B7 strain) [2]; 15.2 μM (2587 mol % vs DMEM/F-12), Fe2+ and Zn2+ 100 mol %, TeSR2 supplement, medium refrigerated 2 weeks, Example 6) | concentration at which culturing was possible (comparison) (iPS cells (201B7 strain) [2]; Essential 8 or TeSR2 supplement, medium refrigerated 2 weeks) | cell growth after storage of medium (iPS cells (201B7 strain) [1]; medium refrigerated non-light-shielded 2 weeks, Matrigel, day 7) | effectiveness of RFV during iPS cell culture (cell confluency) (iPS cells (201B7 strain) [3])
O.O.O.O.O.O.O.O=S(=O)([O-])[O-].[Zn+2] [Zn^2+, zinc sulfate heptahydrate] | do not contribute to lowering of storage stability | – | – | – | – | – | – | – | – | – | – | – | – | – | – | – | – | –
Cc1cc2nc3c(=O)[nH]c(=O)nc-3n(C[C@H](O)[C@H](O)[C@H](O)COP(=O)(O)O)c2cc1C [FMN, Riboflavin 5′-Monophosphate Sodium Salt] | – | ◯ | ◯ | ◯ | ◯ | X | X | ◯ | X | X | X | higher storage stability than that of RFV | – | – | – | – | – | –
Cc1cc2nc3c(=O)[nH]c(=O)nc-3n(C[C@H](O)[C@H](O)[C@H](O)COP(=O)(O)OP(=O)(O)OC[C@H]3O[C@@H](n4cnc5c(N)ncnc54)[C@H](O)[C@@H]3O)c2cc1C [FAD, Flavin Adenine Dinucleotide Disodium Salt Hydrate] | – | ◯ | ◯ | ◯ | ◯ | ◯ | X | ◯ | – | ◯ | X | higher storage stability than that of RFV | ◯ | ◯ | X | higher for FAD than FMN and RTB | – | –
CCCC(=O)OC[C@@H](OC(=O)CCC)[C@@H](OC(=O)CCC)[C@H](Cn1c2nc(=O)[nH]c(=O)c-2nc2cc(C)c(C)cc21)OC(=O)CCC [RTB, Riboflavin Tetrabutyrate] | – | ◯ | ◯ | ◯ | ◯ | X | X | X | X | X | X | higher storage stability than that of RFV | – | – | – | – | – | –
O.O.O.O.O.O.O.O=S(=O)([O-])[O-].[Fe+2] [Fe^2+, iron (II) sulfate heptahydrate] | do not contribute to lowering of storage stability | – | – | – | – | – | – | – | – | – | – | – | – | – | – | – | – | –
Cc1cc2nc3c(=O)[nH]c(=O)nc-3n(C[C@H](O)[C@H](O)[C@H](O)CO)c2cc1C [RFV, riboflavin] | – | X | ◯ | X | ◯ | X | X | X | X | X | X | – | – | – | – | – | cells could not grow after storage for 2 weeks | essential for cell culture
